The subject of this experiment is P388 leukemia ip, CD2F1 mice, survival T/C. Kind of experiment: NCI In Vivo Anticancer Drug Screen. Data for tumor model P388 Leukemia (intraperitoneal) in CD2F1 (CDF1) mice. Particulars: endpoint: median survival time, higher = longer survival. Here is the method:
The antitumor activity of compounds was measured in mice bearing transplantable tumors. Survival or tumor size were measured and the results are expressed as the measurement made in the treated group (T) divided by the measurement made in the vehicle treated control group (C). The tumor model used in this assay is P388 Leukemia (intraperitoneal) in CD2F1 (CDF1) mice

[1] abbreviates: dose: 50.0 mg/kg/injection, schedule: Q01DX009 (ip), vehicle: Klucel (hydroxypropylcellulose) (HPC).
Setting [2] is: dose: 100.0 mg/kg/injection, schedule: Q01DX009 (ip), vehicle: Klucel (hydroxypropylcellulose) (HPC).
Setting [3] is: dose: 200.0 mg/kg/injection, schedule: Q01DX009 (ip), vehicle: Klucel (hydroxypropylcellulose) (HPC).
[4] abbreviates: dose: 100.0 mg/kg/injection, schedule: Q04DX003 (ip), vehicle: saline with Tween-80.
Setting [5] is: dose: 50.0 mg/kg/injection, schedule: Q01DX009 (ip), vehicle: saline with Tween-80.
Where [6] appears, read: dose: 100.0 mg/kg/injection, schedule: Q01DX009 (ip), vehicle: saline with Tween-80.
[7] abbreviates: dose: 200.0 mg/kg/injection, schedule: Q01DX009 (ip), vehicle: saline with Tween-80.

Several values for one entry are separate records, joined by “and”; a condition that tells them apart may be missing. Equal entries are not always repeated. Toxic doses and inconclusive results are not listed.

In the case of `CC1(C)OC1C1CC(C2CCC3(C)C4=CCC5C(C)(C)C(=O)CCC5(C)C4CCC23C)C(O)O1` (stereo not given), the T/C runs as follows: (dose: 1.5 mg/kg/injection, schedule: Q01DX009 (ip), vehicle: Klucel (hydroxypropylcellulose) (HPC)) 90 % of control; (dose: 3.0 mg/kg/injection, schedule: Q01DX009 (ip), vehicle: Klucel (hydroxypropylcellulose) (HPC)) 94 % of control; (dose: 6.0 mg/kg/injection, schedule: Q01DX009 (ip), vehicle: Klucel (hydroxypropylcellulose) (HPC)) 103 % of control; (dose: 12.0 mg/kg/injection, schedule: Q01DX009 (ip), vehicle: Klucel (hydroxypropylcellulose) (HPC)) 100 % of control.
Consider `CC(=O)OC1(C)SCCN1C(N)=O` (stereo not given), for which the T/C runs as follows: under setting [1], 99 % of control; under setting [2], 104 % of control; under setting [3], 100 % of control.
As to `CCSC(C(OC(C)=O)C(OC(C)=O)C(COC(C)=O)OC(C)=O)n1cc(F)c(=O)[nH]c1=O` (stereo not given), the T/C runs as follows: (dose: 25.0 mg/kg/injection, schedule: Q01DX005 (ip), vehicle: other) 97 % of control; (dose: 50.0 mg/kg/injection, schedule: Q01DX005 (ip), vehicle: other) 110 % of control; (dose: 100.0 mg/kg/injection, schedule: Q01DX005 (ip), vehicle: other) 105 % of control; (dose: 200.0 mg/kg/injection, schedule: Q01DX005 (ip), vehicle: other) 107 % of control; (dose: 400.0 mg/kg/injection, schedule: Q01DX005 (ip), vehicle: other) 100 % of control; (dose: 400.0 mg/kg/injection, schedule: Q01DX009 (ip), vehicle: other) 92 % of control.
In the case of `Cc1ccc(S(=O)(=O)/N=C\[N-][n+]2ccccc2C)cc1`, the T/C under setting [1] was 101 % of control, the T/C under setting [2] is 93 % of control and the T/C under setting [3] was 92 % of control.
For the compound `c1ccccc1`, the T/C is, setting by setting: (dose: 0.12 % in 0.5 ml injection vol, schedule: Q01DX009 (ip), vehicle: water) 100 % of control; (dose: 0.25 % in 0.5 ml injection vol, schedule: Q01DX009 (ip), vehicle: water) 102 % of control; (dose: 0.5 % in 0.5 ml injection vol, schedule: Q01DX009 (ip), vehicle: water) 104 % of control; (dose: 1.0 % in 0.5 ml injection vol, schedule: Q01DX009 (ip), vehicle: water) 100 % of control; (dose: 2.0 % in 0.5 ml injection vol, schedule: Q01DX009 (ip), vehicle: water) 100 % of control and 102 % of control; (dose: 4.0 % in 0.5 ml injection vol, schedule: Q01DX009 (ip), vehicle: water) 99 % of control. The T/C (dose: 8.0 % in 0.5 ml injection vol, schedule: Q01DX009 (ip), vehicle: water) was 100 % of control and the T/C (dose: 16.0 % in 0.5 ml injection vol, schedule: Q01DX009 (ip), vehicle: water) was 95 % of control.
Turning to `CN1C(c2ccccc2Cl)C2CCCC(C2O)C1c1ccccc1Cl` (stereo not given), the T/C is, setting by setting: (dose: 100.0 mg/kg/injection, schedule: Q04DX003 (ip), vehicle: saline) 100 % of control; (dose: 200.0 mg/kg/injection, schedule: Q04DX003 (ip), vehicle: saline) 100 % of control; (dose: 400.0 mg/kg/injection, schedule: Q04DX003 (ip), vehicle: saline) 95 % of control.
Turning to `Cc1cc2c3c(cccc3c1)C(=O)c1ccccc1-2`, the T/C (dose: 50.0 mg/kg/injection, schedule: Q01DX005 (ip), vehicle: saline with Tween-80) is 102 % of control; the T/C (dose: 100.0 mg/kg/injection, schedule: Q01DX005 (ip), vehicle: saline with Tween-80) is 102 % of control; the T/C (dose: 200.0 mg/kg/injection, schedule: Q01DX005 (ip), vehicle: saline with Tween-80) is 93 % of control.
Regarding `NC(C/C=C\Cl)C(=O)O` (stereo not given), the T/C was 102 % of control (dose: 50.0 mg/kg/injection, schedule: Q01DX005 (ip), vehicle: Klucel (hydroxypropylcellulose) (HPC)); 98 % of control (dose: 100.0 mg/kg/injection, schedule: Q01DX005 (ip), vehicle: Klucel (hydroxypropylcellulose) (HPC)); 110 % of control (dose: 200.0 mg/kg/injection, schedule: Q01DX005 (ip), vehicle: Klucel (hydroxypropylcellulose) (HPC)).
`NC1CCNC(O)[N-]1.NC1CCNC(O)[N-]1.[Br][Pd][Br]` (stereo not given): the T/C (dose: 60.0 mg/kg/injection, schedule: Q01DX005 (ip), vehicle: Klucel (hydroxypropylcellulose) (HPC)) is 99 % of control; the T/C (dose: 120.0 mg/kg/injection, schedule: Q01DX005 (ip), vehicle: Klucel (hydroxypropylcellulose) (HPC)) was 100 % of control; the T/C (dose: 240.0 mg/kg/injection, schedule: Q01DX005 (ip), vehicle: Klucel (hydroxypropylcellulose) (HPC)) was 102 % of control.
For `CSC(=NNC(N)=O)SC`, the T/C under setting [4] was 100 % of control; the T/C (dose: 200.0 mg/kg/injection, schedule: Q04DX003 (ip), vehicle: saline with Tween-80) is 102 % of control; the T/C (dose: 400.0 mg/kg/injection, schedule: Q04DX003 (ip), vehicle: saline with Tween-80) is 102 % of control.
In the case of `CCC(c1ccc(OC)cc1)C(NCC(=O)N/N=C/c1ccc(N(C)C)cc1)c1ccc(OC)cc1` (stereo not given), the T/C (dose: 100.0 mg/kg/injection, schedule: Q01DX001 (ip), vehicle: saline with Tween-80) is 100 % of control; the T/C (dose: 200.0 mg/kg/injection, schedule: Q01DX001 (ip), vehicle: saline with Tween-80) was 100 % of control; the T/C (dose: 400.0 mg/kg/injection, schedule: Q01DX001 (ip), vehicle: saline with Tween-80) is 99 % of control.
Consider `Nc1ccc(Cl)cn1`, for which the T/C under setting [5] was 90 % of control, the T/C under setting [6] is 99 % of control and the T/C under setting [7] is 99 % of control.
As to `CCCCOP(O)(=S)OCCCC.[Gd]`, the T/C by setting is: (dose: 25.0 mg/kg/injection, schedule: Q01DX009 (ip), vehicle: saline with Tween-80) 92 % of control; under setting [5], 87 % of control and 98 % of control; under setting [7], 86 % of control.
For the compound `O=NN(CCCl)C(=O)NC1C2CC3CC(C2)CC1C3` (stereo not given), the T/C was 118 % of control (dose: 1.78 mg/kg/injection, schedule: Q01DX009 (ip), vehicle: other); 104 % of control (dose: 2.2 mg/kg/injection, schedule: Q04DX003 (ip), vehicle: other); 116 % of control (dose: 2.66 mg/kg/injection, schedule: Q01DX009 (ip), vehicle: other); 118 % of control (dose: 3.3 mg/kg/injection, schedule: Q04DX003 (ip), vehicle: other); 169 % of control (dose: 4.0 mg/kg/injection, schedule: Q01DX009 (ip), vehicle: other); 225 % of control (dose: 6.0 mg/kg/injection, schedule: Q01DX009 (ip), vehicle: other). Moreover, the T/C was 177 % of control (dose: 7.5 mg/kg/injection, schedule: Q04DX003 (ip), vehicle: other); 180 % of control (dose: 12.5 mg/kg/injection, schedule: Q04DX003 (ip), vehicle: other); 300 % of control (dose: 25.0 mg/kg/injection, schedule: Q04DX003 (ip), vehicle: other); 300 % of control (dose: 50.0 mg/kg/injection, schedule: Q04DX003 (ip), vehicle: other); 105 % of control (dose: 100.0 mg/kg/injection, schedule: Q04DX003 (ip), vehicle: other).
On to `O=C1C=CC(=Nc2ccc3c(c2)C(Br)c2ccccc2-3)O1` (stereo not given), for which the T/C was 113 % of control (dose: 4.0 mg/kg/injection, schedule: Q01DX009 (ip), vehicle: saline with Tween-80); 104 % of control (dose: 6.0 mg/kg/injection, schedule: Q01DX009 (ip), vehicle: saline with Tween-80); 113 % of control (dose: 6.25 mg/kg/injection, schedule: Q04DX003 (ip), vehicle: saline with Tween-80); 90 % of control (dose: 9.0 mg/kg/injection, schedule: Q01DX009 (ip), vehicle: saline with Tween-80); 113 % of control (dose: 12.5 mg/kg/injection, schedule: Q01DX009 (ip), vehicle: saline with Tween-80); 100 % of control (dose: 12.5 mg/kg/injection, schedule: Q04DX003 (ip), vehicle: saline with Tween-80). In addition, the T/C (dose: 25.0 mg/kg/injection, schedule: Q04DX003 (ip), vehicle: saline with Tween-80) is 113 % of control.
Regarding `c1ccc(SCCSCCSc2ccccc2)cc1`, the T/C was 105 % of control under setting [5], 101 % of control under setting [6] and 106 % of control under setting [7].
As for `CC(=O)Nc1c(Cl)c(Cl)c2c(c1Cl)Cc1cc(Br)ccc1-2`, the T/C under setting [4] was 109 % of control.

The values are drawn from PubChem BioAssay AID330 (DTP/NCI, 2004).
